Source: US20230123277A1, “COMPOSITIONS COMPRISING 2'-DEOXYCYTIDINE ANALOGS AND USE THEREOF FOR THE TREATMENT OF SICKLE CELL DISEASE AND THALASSEMIA” (AkiraBio, Inc., priority 2021, published 2023)

Legend:
[1] = Relative thermodynamic stability of crystalline polymorphs (DSC); assay type: physicochemical; conditions: Form A compared with Form F, from melting temperatures
Description: DSC ANALYSIS. Thermal events (i.e., melting, re-crystallization) were obtained from DSC thermograms, recorded with a heat flux DSC3+ STARe system (Mettler-Toledo GmbH, Switzerland). The DSC3+ was calibrated for temperature and enthalpy with a small piece of indium (m.p.=156.6° C.; δHf=28.45 J/g) and zinc (m.p.=419.6° C.; δHf=107.5 J/g). Samples (circa 2 mg) were sealed in standard 40 μL aluminum pans, pin-holed and heated in the DSC from 25° C. to 300° C., at a heating rate of 10° C./min. Dry N2 gas, at a flow rate of 50 mL/min was used to purge the DSC equipment during measurement. The cycling DSC experiments were measured in standard 40 μL aluminum pans, pin-holed and heated in the DSC from 25° C. to variable temperatures, then cooled back to 25° C. The heating and cooling rate was 10° C./min. Dry N2 gas, at a flow rate of 50 mL/min was used to purge the DSC equipment during measurement. Afterwards the samples were recovered and analyzed by HT-XRPD.
Form A obtained from the solvent equilibration experiment at RT in TFE was used for the analytical characterization. […] (FIG. 12A). […] The LCMS analysis confirmed the Form A's integrity with a purity of 100% (area %) (FIG. 12C).
Form F obtained from the evaporative crystallization experiment using DMF/acetonitrile (80/20, v/v) was used for characterization. […]

[2] = system: pediatric brain tumor models; conditions: background statement; cited from earlier work

| Compound | thermodynamic stability of the polymorph [1] | therapeutic response [2] |
| --- | --- | --- |
| Nc1ncn([C@H]2C[C@H](O)[C@@H](CO)S2)c(=O)n1 [Form A, 5-aza-4′-thio-2′-deoxycytidine] | thermodynamically more stable form |  |
| Nc1nc(=O)n([C@H]2C[C@H](O)[C@@H](CO)O2)cc1F [5-fluoro-2′-deoxycytidine, reference compound] |  | no significant therapeutic response |
| Nc1ncn([C@H]2C[C@H](O)[C@@H](CO)S2)c(=O)n1 [5-aza-4′-thio-2′-deoxycytidine] |  | no significant therapeutic response |
